From patent US8178506B2, “Oligomeric compounds and compositions for use in modulation of small non-coding RNAs” (Regulus Therapeutics Inc., priority 2003, dated 2012) come the findings set out here.

Assay type in all cases: cell-based, human
For series [1], the system named is differentiated adipocytes. In words: Hallmark genes and triglycerides in differentiated adipocytes. The note with it: Table 28; differentiated adipocytes transfected day nine post-differentiation; 250 nM oligonucleotide.
Series [2] concerns HeLa cells. In words: Cell cycle assay in HeLa cells. The note with it: HeLa cells, 150 nM oligomeric compound; for % cells aneuploid / % cells in cell cycle phase G1 / % cells in cell cycle phase G2/M / % cells in cell cycle phase S / % cells in cell cycle phase subG1: 24 hours, relative to untreated control (UTC = 100).
For series [3], the system named is preadipocytes. In words: Caspase assay in preadipocytes. The conditions noted are these: untreated control set equal to 1.0. The source says:
The effect of oligomeric compounds of the present invention targeting miRNAs was examined in preadipocytes (Zen-Bio, Inc., Research Triangle Park, N.C.) using the fluorometric caspase assay previously described in Example 11.

[4] abbreviates: 48 hours after treatment, relative to untreated control (UTC=100).

“And” between values parts separate entries of the source, which are not always exact repeats. Equal entries are not always repeated. In the oligonucleotide strings, read from the 5' end, every base follows the letter of its sugar. An asterisk marks phosphorothioate; unmarked linkages are phosphodiester. Other units and linkages are bracketed, terminal groups are in braces. A string of capitals states the bases alone. e = 2'-O-(2-methoxyethyl) (MOE); [5mC] = 5-methylcytosine

In series [1], “327903 (antisense eA*eA*e[5mC]*eT*eA*eT*eA*e[5mC]*eA*eA*e[5mC]*e[5mC]*eT*eA*e[5mC]*eT*eA*e[5mC]*e[5mC]*eT*e[5mC]*eA) [compound 327903]” returned a Glut4 of 0.36, an HSL of 0.53, a PPAR gamma of 0.91 and a TG of 1.12. Besides, the aP2 in series [1] is 0.56. In series [2], the “% cells aneuploid” value was 98%, the “% cells in cell cycle phase G1” value turned out to be 92%, the “% cells in cell cycle phase G2/M” value is recorded as 106% and the “% cells in cell cycle phase S” value is recorded as 104%. For the same substance, the “% cells in cell cycle phase subG1” value in series [2] was found to be 118%. Also, in series [2] (setting [4]), the “% cells in cell cycle phase: G1” value was determined as 102%, the “% cells in cell cycle phase: G2/M” value was found to be 98%, the “% cells in cell cycle phase: S” value is 95% and the “% cells in cell cycle phase: aneuploid” value is reported as 94%. For the same substance, the “% cells in cell cycle phase: subG1” value in series [2] (setting [4]) was found to be 74%. In addition, the “Fold Increase over UTC (caspase activity)” value in series [3] turned out to be 1.6 fold over UTC.
In series [1], “327934 (antisense eG*eG*eT*eA*e[5mC]*eA*eA*eT*e[5mC]*eA*eA*e[5mC]*eG*eG*eT*e[5mC]*eG*eA*eT*eG*eG*eT) [compound 327934]” displayed a Glut4 of 1.52, an HSL of 1.97, a PPAR gamma of 1.54 and a TG of 1.43. In series [1], this substance had an aP2 of 1.50. In series [2], the “% cells aneuploid” value was 55% and 77%; the “% cells in cell cycle phase G1” value is 87% and 118%; the “% cells in cell cycle phase G2/M” value was 160% and 137%; the “% cells in cell cycle phase S” value was 85% and 66%. Further, the “% cells in cell cycle phase subG1” value in series [2] was 278% and 204%. Also, in series [2] (setting [4]), the “% cells in cell cycle phase: G1” value is 62% and 66%; the “% cells in cell cycle phase: G2/M” value is 152% and 155%; the “% cells in cell cycle phase: S” value was 156% and 148%; the “% cells in cell cycle phase: aneuploid” value is 92% and 117%. Also, the “Fold Increase over UTC (caspase activity)” value in series [3] came out at 2.0 fold over UTC.
